# Measurements as given in publication PMC5118230, “Effects of acetaminophen on mitochondrial complex I activity in the rat liver and kidney: a PET study with ^18F-BCPP-BF” (EJNMMI Research, 2016).
# Experiments:
# [1] = design: method as in PMID 24285187, PMID 24470629; conditions: pH 7.4; cited from earlier work
# MC-I [2] = biological target: MC-I; design: method as in PMID 24285187, PMID 24470629; conditions: affinity to MC-I; cited from earlier work
# [3] = tested on: mitochondrial complex I (MC-I); assay: PET kinetics and distribution of 18F-BCPP-BF in rat abdominal organs; type: in vivo
# Description: (§1) Four animals per group were used for PET imaging.
# (§2) Rats anesthetized by 1.5–2.0% isoflurane in O2 were positioned prone on a fixation plate and placed in the gantry hole of the PET scanner (SHR-7700, Hamamatsu Photonics, Hamamatsu, Japan). After a transmission scan for 15 min using a ^68Ge-^68Ga rotation rod source, ^18F-BCPP-BF at ca. 15 MBq was intravenously injected into each rat via the tail vein, and this was followed by an emission scan with list mode data acquisition (every 1 ms) for 90 min. The body temperature of each animal was monitored to record throughout the study using a Thermo-Hygro Recorder (TR-72Ui, T&D Corporation, Matsumoto, Japan).
# (§3) The PET data obtained were reconstructed by Dynamic RAMLA (DRAMA) method with a Gauss filter of 1.0-mm FWHM and attenuation correction using the transmission scan data. Dynamic images every 2 min for the time activity curve (TAC) as well as summation images in the early (from 15 to 30 min after ^18F-BCPP-BF injection) and late (from 70 to 90 min) phases were reconstructed. Since there were no information on the TACs of ^18F-BCPP-BF in the liver and kidney, we conducted PET data acquisition up to 90 min after the injection.
# (§4) Standard uptake value (SUV) images were created as follows: SUV=CTWs/Dinj
# (§5) where C T is the tissue radioactivity (Bq/mL) obtained from PET images, W s is the body weight (g) of the rat being examined, and D inj is the injected dose (Bq) of ^18F-BCPP-BF. Each summation SUV image was superimposed on the corresponding X-CT images obtained using ClairvivoCT (Shimadzu Corporation, Kyoto, Japan). Volumes of interest (VOIs) were selected on summation images of the kidney (renal cortex and pelvis) and liver in the early (from 15 to 30 min) and late (from 70 to 90 min) phases and TACs were obtained from dynamic image data in each organ as SUV by setting the early phase VOIs.
# [4] = tested on: mitochondrial complex I (MC-I); design: method as in PMID 24470629; conditions: with time, significant at the later phase of 60 min after injection; cited from earlier work
# [5] = tested on: mitochondrial complex I (MC-I); assay: effects of acetaminophen on MC-I activity (18F-BCPP-BF uptake, PET); type: in vivo, rat
# Description: In order to evaluate the acute effects of acetaminophen, vehicle or acetaminophen at a dose of 100 or 300 mg/kg in 10 mL/kg of vehicle (saline containing 20% Tween-80) was intraperitoneally administered 2 or 24 h before the PET probe injection.
# as §2, §3, §4, §5
# liver [6] = assay: biochemical parameters for hepatic function in serum after acetaminophen; type: in vivo, rat
# Description: (§6) In a separate study from PET measurements, physiological and biochemical assessments were conducted on four animals for each time and dosing condition. Body weight measurements, urine collection, and blood sampling were conducted 2, 6, and 24 h after the administration of acetaminophen. A rat was placed in a metabolic cage on a 12/12-h light/dark cycle, and urine samples were collected for 24 h and centrifuged to remove suspended material, and the supernatants were analyzed to measure total protein, creatinine, and N-acetyl-β-D-glucosaminidase (NAG) using a biochemical automatic analyzer (JCA-BM6010, JEOL Ltd., Tokyo, Japan). Blood sample was collected from the tail vein, and the serum fraction separated from the blood was used in assay of alanine aminotransferase (ALT), aspartate aminotransferase (AST), lactate dehydrogenase (LDH), bilirubin (BIL), and BUN using a biochemical automatic analyzer (JCA-BM6010, JEOL Ltd., Tokyo, Japan).
# kidney = assay: biochemical parameters for renal function in urine and serum after acetaminophen; type: in vivo, rat
# Description: as §6
# liver [7] = tested on: liver; design: method as in PMID 26102222; conditions: acetaminophen 300 mg/kg, mice; cited from earlier work
# [8] = tested on: mitochondrial complex I (MC-I); assay: binding specificity of 18F-BCPP-BF to MC-I: pre-administration of rotenone, PET; type: in vivo, rat; conditions: rotenone 0.1 mg/kg/h i.v. infusion for 1 h before probe
# Description: as §1, §2, §3, §4, §5
# MC-I [9] = tested on: MC-I; design: method as in PMID 24470629; conditions: rotenone 0.1 mg/kg; cited from earlier work
# [10] = control rat, 15 to 30 min post-injection, i.v.
# [11] = control rat, 70 to 90 min post-injection, i.v.
# [12] = 24 h after acetaminophen 300 mg/kg i.p., p < 0.001
# [13] = 24 h after acetaminophen 300 mg/kg i.p., p = 0.034
# [14] = 24 h after acetaminophen 300 mg/kg i.p., p = 0.027
smiles,measurement,setting,value
"CC(C)(C)n1ncc(OCc2ccc(OCCOCCO[11CH3])nc2)c(Cl)c1=O [^11C-BCPP-EM, 2-tert-butyl-4-chloro-5-{6-[2-(2-^11C-methoxy-ethoxy)-ethoxy]-pyridin-3-ylmethoxy}-2H-pyridazin-3-one]",logD7.4,[1],2.87
"COCCOCCOc1ccc(COc2cnn(C(C)(C)C)c(=O)c2Cl)cn1 [^11C-BCPP-EM, 2-tert-butyl-4-chloro-5-{6-[2-(2-^11C-methoxy-ethoxy)-ethoxy]-pyridin-3-ylmethoxy}-2H-pyridazin-3-one]",Ki,MC-I [2],4.7 nM
"CC(C)(C)n1ncc(OCc2ccc(OCCCCF)nc2)c(Cl)c1=O [^18F-BCPP-BF, 2-tert-butyl-4-chloro-5-[6-(4-^18F-fluorobutoxy)-pyridin-3-ylmethoxy]-2H-pyridazin-3-one]",Ki,MC-I [2],0.7 nM
"CC(C)(C)n1ncc(OCc2ccc(OCCCC[18F])nc2)c(Cl)c1=O [^18F-BCPP-BF, 2-tert-butyl-4-chloro-5-[6-(4-^18F-fluorobutoxy)-pyridin-3-ylmethoxy]-2H-pyridazin-3-one]","averaged SUV, liver",[3]; [10],4.40 ± 0.39
same,"averaged SUV, renal cortex",[3]; [10],8.12 ± 0.69
same,"averaged SUV, renal pelvis",[3]; [10],4.17 ± 0.51
same,"averaged SUV, bladder","[3]; control rat, 15 to 30 min post-injection, i.v., data not shown",0.88 ± 0.42
same,"averaged SUV, liver",[3]; [11],3.75 ± 0.38
same,"averaged SUV, renal cortex",[3]; [11],6.29 ± 0.30
same,"averaged SUV, renal pelvis",[3]; [11],4.37 ± 0.64
same,type of kinetics of the time activity curves,"[3]; rat renal cortex and liver, PET TACs",reversible-type kinetics
same,logD7.4,[1],4.27
same,accumulation of radioactivity in bone (defluorination),[4],slightly greater accumulation of radioactivity in bone with time
"CC(C)(C)n1ncc(OCc2ccc(OCCOCCF)nc2)c(Cl)c1=O [^18F-BCPP-EF, 2-tert-butyl-4-chloro-5-{6-[2-(2-^18F-fluoroethoxy)-ethoxy]-pyridin-3-ylmethoxy}-2H-pyridazin-3-one]",Ki,MC-I [2],2.31 nM
"CC(C)(C)n1ncc(OCc2ccc(OCCOCC[18F])nc2)c(Cl)c1=O [^18F-BCPP-EF, 2-tert-butyl-4-chloro-5-{6-[2-(2-^18F-fluoroethoxy)-ethoxy]-pyridin-3-ylmethoxy}-2H-pyridazin-3-one]",logD7.4,[1],3.03
CC(=O)Nc1ccc(O)cc1 [acetaminophen],18F-BCPP-BF uptake by the liver vs. control,"[5]; acetaminophen 100 mg/kg i.p., 2 h after, SUV 15 to 30 min, p = 0.017",72.1%
same,18F-BCPP-BF uptake in the renal cortex vs. control,"[5]; acetaminophen 100 mg/kg i.p., 24 h after, SUV 15 to 30 min, p = 0.038",83.4%
same,18F-BCPP-BF uptake by the liver vs. control,"[5]; acetaminophen 100 mg/kg i.p., 24 h after, SUV 15 to 30 min, p = 0.049",81.4%
same,18F-BCPP-BF uptake by the liver vs. control,"[5]; acetaminophen 300 mg/kg i.p., 2 h after, SUV 15 to 30 min, p = 0.003",53.9%
same,18F-BCPP-BF uptake in the renal cortex vs. control,"[5]; acetaminophen 300 mg/kg i.p., 2 h after, SUV 15 to 30 min, p = 0.025",72.1%
same,18F-BCPP-BF uptake in the renal pelvis vs. control,"[5]; acetaminophen 300 mg/kg i.p., 2 h after, SUV 15 to 30 min, p = 0.027",56.6%
same,18F-BCPP-BF uptake by the liver vs. control,"[5]; acetaminophen 300 mg/kg i.p., 24 h after, SUV 15 to 30 min, p = 0.002",80.5%
same,18F-BCPP-BF uptake in the renal cortex vs. control,"[5]; acetaminophen 300 mg/kg i.p., 24 h after, SUV 15 to 30 min, p = 0.009",79.5%
same,reduction of MC-I activity in the liver assessed using 18F-BCPP-BF,[5]; acetaminophen 300 mg/kg in rats,approximately 50%
same,18F-BCPP-BF uptake in the renal pelvis,"[5]; acetaminophen i.p., 24 h after, SUV 15 to 30 min",no significant reduction
same,AST vs. the corresponding 100 mg/kg,liver [6]; [12],383.0%
same,AST vs. the corresponding control,liver [6]; [12],322.3%
same,ALT vs. the corresponding control,"liver [6]; 24 h after acetaminophen 300 mg/kg i.p., p = 0.001",207.4%
same,BIL vs. the corresponding 100 mg/kg,liver [6]; [13],233.3%
same,BIL vs. the corresponding control,liver [6]; [13],186.2%
same,ALT level change,liver [6]; acetaminophen 100 mg/kg i.p.,did not show significant changes
same,AST level change,liver [6]; acetaminophen 100 mg/kg i.p.,did not show significant changes
same,BIL level change,liver [6]; acetaminophen 100 mg/kg i.p.,did not show significant changes
same,LDH change from the control condition,"liver [6]; acetaminophen 100 or 300 mg/kg i.p., 2, 6 and 24 h",did not show any significant alterations
same,urinary protein excretion vs. 100 mg/kg,"kidney; 6 h after acetaminophen 300 mg/kg i.p., p = 0.017",46.9%
same,urinary protein excretion vs. control,"kidney; 6 h after acetaminophen 300 mg/kg i.p., p = 0.028",56.4%
same,urinary protein excretion vs. 100 mg/kg,kidney; [14],143.0%
same,urinary protein excretion vs. control,kidney; [14],128.9%
same,BUN change,"kidney; serum, acetaminophen treatment, at any time",did not show any significant alterations
same,creatinine level vs. control,"kidney; urine, 6 h after acetaminophen 300 mg/kg i.p., p < 0.001",24.3%
same,creatinine level vs. 100 mg/kg,"kidney; urine, 6 h after acetaminophen 300 mg/kg i.p., p = 0.002",23.4%
same,NAG vs. control,"kidney; urine, 24 h after acetaminophen 300 mg/kg i.p., p = 0.011",161.8%
same,NAG vs. 100 mg/kg,"kidney; urine, 24 h after acetaminophen 300 mg/kg i.p., p = 0.027",164.8%
same,NAG change,"kidney; urine, acetaminophen 100 mg/kg i.p.",did not show any significant changes
same,reduction in 18F-2-DFR uptake by the liver,liver [7],approximately 20%
C=C(C)[C@H]1Cc2c(ccc3c2O[C@@H]2COc4cc(OC)c(OC)cc4[C@@H]2C3=O)O1 [rotenone],18F-BCPP-BF uptake level in renal cortex vs. control,"[8]; averaged SUV 15 to 30 min, p = 0.027",64.2%
same,18F-BCPP-BF uptake level in liver vs. control,"[8]; averaged SUV 15 to 30 min, p = 0.038",76.9%
same,"inhibition degree of 18F-BCPP-BF uptake in renal cortex, of control","[8]; averaged SUV 70 to 90 min, p = 0.006",52.2%
same,inhibition of the binding of MC-I PET probes to MC-I in the heart and brain,MC-I [9],fully inhibited
